Reference: patent publication US12030876B2, “Aryl hydrocarbon receptor (AHR) agonists and uses thereof” (Ikena Oncology, Inc., priority 2019, dated 2024)

Legend:
[1] = system: DSS model of Inflammatory Bowel Disease (IBD); format: in vivo, C57Bl/6 mice; conditions: DSS model
Method: On study day −1, C57Bl/6 mice are weighed and randomized into treatment groups based on body weight. On study day 0, treatment groups are given 2.5% DSS in drinking water and treatment is initiated on the same day, with either vehicle or AHR agonist compound(s). On study day 7, DSS drinking water is replaced with normal drinking water for the remainder of the study. Body weight is measured daily during the entire study. On study day 10, animals are anesthetized with Isoflurane and bled to exsanguination followed by cervical dislocation. The entire colon is removed and measured for length, weight, and weight per length. Overall efficacy of test AR agonist compounds is based on body weight, colon length, and colon histopathology. Histopathology data is assessed for appropriate parameters, as determined by a pathologist and the parameters for these DSS studies can include inflammation, erosion, gland loss, edema, hyperplasia, neutrophil count, mucosal thickening, lymphoid aggregate count and lymphoid aggregate size. The different parameter scores can be added for a summed score for the study histopathology.

[2] = system: DSS model of Inflammatory Bowel Disease (IBD); parameters: species or system C57Bl/6 mice; conditions: mouse
[3] = system: T-cell transfer IBD model; format: in vivo, SCID mice
Method: On study day 0, donor Balb/C mice are terminated, and spleens obtained for CD4+CD45RB^high cell isolation (Using a SCID IBD Cell Separation Protocol). After cells have been sorted and obtained, each recipient SCID animal receives an IP injection of, at a minimum, 4×10^5 cells (200 μl/mouse injections). Also on study day 0, SCID mice are weighed and randomized into treatment groups based on body weight. On study day 14, AHR agonist compound treatments are initiated and dosed orally daily; the control group receiving anti-IL12 (0.5 mg/mouse) is dosed IP once a week. On study day 49, animals are anesthetized with Isoflurane and bled to exsanguination followed by cervical dislocation. The entire colon is removed, measured, and weighed. Overall efficacy of AHR agonist compounds are based on a ratio of colon weight to length, and colon histopathology and colon cytokines (Th17 panel).

[4] = system: naive CD62L+ human T-Cells; test: Th17 assay; format: cell-based; conditions: FIG. 16
Method: On Day 1, naive CD62L+ human T-Cells were plated in a 96 well plate (25,000 cells in 200 uL media). Cells were activated with human CD3/CD28 tetramer (12.5 μL/1×10^6 cells) and differentiated with human Th17 cytokines (50 ng/mL IL-6, 20 ng/mL IL-1 beta, 10 ng/mL IL-23, 1 ng/mL TGF-beta, 12 μg/mL anti-human IFN-γ antibody and 10 μg/mL anti-human TL-4 antibody) for 10 days. Media containing cytokine cocktail and CD3/CD28 was refreshed every 2-3 days. On Day 10, cell supernatant was collected and frozen for cytokine analysis. Cells were stimulated with 1× Cell Stimulation Cocktail (PMA and Ionomycin) for 5 hours. After 5 hours of stimulation, cells were stained for intracellular cytokines (human CD4, IL-17A, IL-22). Samples were run on BD LSR FORTESSA and analyzed in FLOWJO software.

Cyp1a1 gene expression = system: Cyp1a1 gene expression; parameters: species or system C57BL/6N mice; conditions: mouse, in vivo
Method: C57BL/6N mice are weighed and randomized into treatment groups with group size of 3-5 mice. On study Day 1, treatment is initiated and necropsies follow on day 1 at 4 and 12 hours post-dose and on Day 2, 24 hours post-dose. On Day 1, mice are dosed orally with one dose of the AHR agonist compound(s) that are in a suspension and mixed well before dosing. At the designated time, animals are euthanized and plasma and tissue taken for compound levels (PK) and compound effect (PD) on gene expression. Liver samples and proximal colon are weighed and then frozen for subsequent RNA extraction and RT-PCR analysis. AHR activation is determined by measuring Cyp1a1 gene expression relative to a housekeeping gene, such as GAPDH or HPRT. Cyp1a1 expression levels in the liver are compared to Cyp1a1 levels in the colon to determine a colon:liver ratio to determine the level of GI preferred AHR activation.

[5] = system: human Crohn's and ulcerative colitis tissue cultures
[6] = system: human regulatory T cells (Tregs); test: Treg assay (human); format: cell-based; conditions: compound present during induction of Tregs, in vitro; FIG. 15
Method: On day 0, naïve T cells from cryopreserved human derived PBMCs were isolated. These cells were plated in 48 well plate at 500,000 cells/mL concentration with human CD3/CD28 activation tetramer (12.5 μL/1×10^6 cells) and differentiated into regulatory T cells (Tregs) with 1 ng/mL […] and 5 ng/mL human recombinant TL-2 in the presence of DMSO or different concentrations of AHR agonist compounds.
On day 5, the Tregs were counted and washed. CD25− Effector T cells (Teffs) were isolated from the same human donor and were labeled with Cell Trace Violet. The Tregs and Teffs were cocultured for 4 days in 96 well plate at 1:2 or 1:1 ratio with human CD3/CD28 tetramer (12.5 μL/1×10^6 cells).
At the end of a 4 day co-culture, the cells were washed and stained with LiveDead stain. They were run on flow cytometer and analyzed using FLOWJO software.

[7] = T-cell transfer IBD model, FIG. 9

Row | in vivo AHR activation by expression of Cyp1a1 in the colon [2] | in vivo AHR activation by expression of Cyp1a1 in the colon ([3]; mouse, in vivo) | SMILES | inflammation and erosion (histopathology) ([1]; relative to vehicle control, FIG. 6, FIG. 19) | colon length ([1]; FIG. 5) | content score ([1]; FIG. 5) | cytokine activity: IFN-γ, IL-1β, and MIP-3α/CCL20 ([3]; T-cell transfer IBD model, colon cytokines, FIG. 11) | cytokine activity: GM-CSF and IL-6 ([3]; T-cell transfer IBD model, colon cytokines, FIG. 12) | cytokine activity: IL-17/IL-25 and TNF-α ([3]; T-cell transfer IBD model, colon cytokines, FIG. 13) | body weight [3, 7] | colon weight [3, 7] | reduction in colon weight compared to vehicle [3, 7] [%] | reduction in colon weight per length compared to vehicle [3, 7] [%] | inflammation ([3]; T-cell transfer IBD model, FIG. 10) | IL-17A+ human T-cells ([4]; Th17 polarizing conditions) | IL-22+ human T-cells ([4]; Th17 polarizing conditions) | human Th17 cell differentiation ([4]; in vitro) | Cyp1a1 induction in the colon (Cyp1a1 gene expression) | cytokine release: IFN-γ, IL-17A, IL-1β, and TNF-α [5] | suppressive functions of human Tregs [6]
1 | confirmed | confirmed | FC(F)(F)c1cccc(Nc2nc(-c3cccc(Cl)c3)cs2)c1 [Compound P-2] | minimal inflammation and mild erosion | increased colon length | improved content score | significant reduction | significant reduction | reduction | increased body weight | decreased colon weight | 54 | 54 | significant reduction |  |  |  |  |  | 
2 |  |  | Nc1cccc(-c2csc(Nc3cccc(C(F)(F)F)c3)n2)c1 [I-10] |  |  |  |  |  |  |  |  |  |  |  | decreases | increases | modulates | comparable | decreases | increases suppressive functions
